Measured values from US20160122307A1, “PERHYDROQUINOXALINE DERIVATIVES” (DR. AUGUST WOLFF GMBH & CO. KG ARZNEIMITTEL, priority 2013, published 2016).
Like-named read-outs stand apart in the source and are kept apart here.

Biological target: Human opiate κ receptors (Homo sapiens, UniProt P41145)
Assay: κ opioid receptor functional assay, [35S]GTPγS binding (assay C)
Assay type: biochemical
Conditions: for activation at 1 µM: 0.5 h, read-out: % activation functional assay at 1 μM
[1] = read-out: EC50 (nM) [35S]GTPγS binding

Sequence of Human opiate κ receptors (P41145 whole entry): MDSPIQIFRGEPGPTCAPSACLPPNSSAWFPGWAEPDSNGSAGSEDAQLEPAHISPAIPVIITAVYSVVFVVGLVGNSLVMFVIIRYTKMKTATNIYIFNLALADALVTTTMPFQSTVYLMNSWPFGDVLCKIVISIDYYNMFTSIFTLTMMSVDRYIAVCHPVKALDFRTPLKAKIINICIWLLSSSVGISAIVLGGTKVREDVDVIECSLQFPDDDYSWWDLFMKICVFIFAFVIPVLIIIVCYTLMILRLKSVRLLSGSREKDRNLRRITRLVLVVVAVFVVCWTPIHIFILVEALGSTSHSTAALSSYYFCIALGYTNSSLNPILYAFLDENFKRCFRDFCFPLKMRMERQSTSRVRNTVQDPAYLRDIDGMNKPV

Row | SMILES | activation at 1 µM [%] | EC50 (GTPγS EC50 (nM)) [nM] | other results
1 | O=C(O)CC(=O)N1CCN(C(=O)Cc2ccc(Cl)c(Cl)c2)C2C(N3CCCC3)CCCC21 (racemic) [AD, reference compound] | – | – | activation (% of control) at 1 μM: 22 % of control; activation of the kappa opioid receptors at 1 μM: no or little activation; EC50 [1]: > 1000 nM; EC50 (read-out: EC50 kappa opioid receptor activation): > 1000 nM
2 | O=C(C1CC1)N1CCN(C(=O)Cc2ccc(Cl)c(Cl)c2)C2C(N3CCCC3)CCCC21 (racemic) [Example 28] | 111 | < 10 | –
3 | COC(=O)N1CCN(C(=O)Cc2ccc(Cl)c(Cl)c2)[C@@H]2[C@@H](N(C)C)CCC[C@@H]21 [Example 90] | 96 | < 10 | –
4 | COC(=O)N1CCN(C(=O)Cc2ccc(C(F)(F)F)c(Cl)c2)[C@@H]2[C@@H](N3CC[C@H](O)C3)CCC[C@@H]21 [Example 108] | 100 | < 10 | –
5 | CC(C)NC(=O)N1CCN(C(=O)Cc2ccc(Cl)c(Cl)c2)[C@@H]2[C@@H](N3CCCC3)CCC[C@@H]21 [Example 99] | 100 | < 10 | –
6 | O=C(C1CCCN1)N1CCN(C(=O)Cc2ccc(Cl)c(Cl)c2)C2C(N3CCCC3)CCCC21 (racemic) [Example 80] | 76 | 100 to 1000 | –
7 | O=C(Cc1ccc(Cl)c(Cl)c1)N1CCN(Cc2cccnc2)C2CCCC(N3CCCC3)C21 (racemic) [Example 48] | 100 | < 10 | activation (% of control) at 1 μM: 100 % of control; EC50 (EC50 (nM) [35S]GTPγS binding): 4.99 nM
8 | COC(=O)N1CCN(C(=O)Cc2ccc(Cl)c(Cl)c2)[C@H]2[C@H]1CCC[C@@H]2N1CCCC1 (single isomer, unassigned) [Reference compound D, reference compound] | 92 | – | –
9 | COC(=O)N1CCN(C(=O)Cc2ccc(C(F)(F)F)c(F)c2)[C@@H]2[C@@H](N3CC[C@H](O)C3)CCC[C@@H]21 [Example 141] | 99 | < 10 | –
10 | Cl.Cl.Cl.O=C(Cc1ccc(Cl)c(Cl)c1)N1CCN(c2cccnc2)C2CCCC(N3CCCC3)C21 (racemic) [Example 72] | – | – | % activation functional assay at 1 μM: 106%; EC50 (read-out: GTPγS EC50): < 10 nM
11 | CN(C)S(=O)(=O)N1CCN(C(=O)Cc2ccc(Cl)c(Cl)c2)C2C(N3CCCC3)CCCC21 (racemic) [Example 35] | 108 | < 10 | –
12 | COC(=O)c1cccc(C(=O)N2CCN(C(=O)Cc3ccc(Cl)c(Cl)c3)C3C(N4CCCC4)CCCC32)c1 (racemic) [Example 86] | 86 | – | –
13 | CCC(=O)N1CCN(C(=O)Cc2ccc(Cl)c(Cl)c2)C2C(N3CCCC3)CCCC21 (racemic) [Example 25] | 102 | < 10 | activation (% of control) at 1 μM: 102 % of control; EC50 (EC50 (nM) [35S]GTPγS binding): 2.55 nM
14 | CCNC(=O)N1CCN(C(=O)Cc2ccc(Cl)c(Cl)c2)C2C(N3CCCC3)CCCC21 (racemic) [Example 40] | 96 | < 10 | –
15 | NC(=O)COC(=O)N1CCN(C(=O)Cc2ccc(Cl)c(Cl)c2)C2C(N3CCCC3)CCCC21 (racemic) [Example 68] | 104 | 10 to 100 | –
16 | NC(=O)CNC(=O)N1CCN(C(=O)Cc2ccc(Cl)c(Cl)c2)C2C(N3CCCC3)CCCC21 (racemic) [Example 76] | 106 | 10 to 100 | –
17 | COC(=O)N1CCN(C(=O)Cc2ccc(Cl)c(Cl)c2)[C@@H]2[C@@H](N3CCCC3)CCC[C@@H]21 (racemic) [Example 1] | 109 | – | activation (% of control) at 1 μM: 109 % of control
18 | O=C(c1ccccc1)N1CCN(C(=O)Cc2ccc(Cl)c(Cl)c2)C2C(N3CCCC3)CCCC21 (racemic) [Example 31] | 93 | – | activation (% of control) at 1 μM: 93 % of control
19 | O=C(c1ccco1)N1CCN(C(=O)Cc2ccc(Cl)c(Cl)c2)C2C(N3CCCC3)CCCC21 (racemic) [Example 29] | 96 | – | –
20 | COC(=O)N1CCN(C(=O)Cc2ccc(C(F)(F)F)c(Cl)c2)[C@@H]2[C@@H](N3CC[C@@H](O)C3)CCC[C@@H]21 [Example 113] | 102 | < 10 | –
21 | COC(=O)COC(=O)N1CCN(C(=O)Cc2ccc(Cl)c(Cl)c2)[C@@H]2[C@@H](N3CC[C@H](O)C3)CCC[C@@H]21 [Example 106] | 92 | < 10 | –
22 | CS(=O)(=O)N1CCN(C(=O)Cc2ccc(C(F)(F)F)c(Cl)c2)[C@@H]2[C@@H](N3CC[C@H](O)C3)CCC[C@@H]21 [Example 124] | 97 | < 10 | –
23 | COC(=O)N1CCN(C(=O)Cc2ccc(Cl)c(Cl)c2)[C@@H]2[C@@H](N3CC[C@@H](O)C3)CCC[C@@H]21 [Example 96] | 109 | < 10 | –
24 | COC(=O)N1CCN(C(=O)Cc2ccc(Cl)c(F)c2)C2C(N3CCCC3)CCCC21 (racemic) [Example 19] | 100 | < 10 | –
25 | CC(C)C(=O)N1CCN(C(=O)Cc2ccc(Cl)c(Cl)c2)C2C(N3CCCC3)CCCC21 (racemic) [Example 26] | 119 | < 10 | –
26 | COC(=O)N1CCN(C(=O)Cc2ccc(Cl)c(Cl)c2)C2C(N3CC=CCC3)CCCC21 (racemic) [Example 12] | 96 | 10 to 100 | –

Row | SMILES | activation at 1 µM [%] | EC50 (GTPγS EC50 (nM)) [nM] | other results
27 | CN(C)S(=O)(=O)N1CCN(C(=O)Cc2ccc(Cl)c(Cl)c2)[C@@H]2[C@@H](N3CCCC3)CCC[C@@H]21 [Example 98] | 105 | < 10 | –
28 | COC(=O)N1CCN(C(=O)Cc2ccc(C(F)(F)F)cc2)[C@@H]2[C@@H](N3CC[C@H](O)C3)CCC[C@@H]21 [Example 139] | 104 | < 10 | –
29 | COC(=O)N1CCN(C(=O)Cc2ccc(Cl)c(F)c2)[C@@H]2[C@@H](N3CCCC3)CCC[C@@H]21 [Example 94] | 103 | 10 to 100 | –
30 | COC(=O)N1CCN(C(=O)Cc2ccc(OC)c(F)c2)C2C(N3CCCC3)CCCC21 (racemic) [Example 22] | 78 | 100 to 1000 | –
31 | COC(=O)N1CCN(C(=O)Cc2ccc(Cl)c(Cl)c2)C2C(N3CCC(O)C3)CCCC21 (stereo not drawn) [S, reference compound] | – | – | activation (% of control) at 1 μM (1 µM): 91 % of control; EC50 [1]: 85 nM
32 | CC(C)(C)OC(=O)N1CCN(C(=O)Cc2ccc(Cl)c(Cl)c2)[C@@H]2[C@@H](N3CCCC3)CCC[C@@H]21 (racemic) [Example 24] | 105 | < 10 | –
33 | CCN(C)[C@H]1CCC[C@H]2[C@@H]1N(C(=O)Cc1ccc(Cl)c(Cl)c1)CCN2C(=O)OC [Example 91] | 106 | < 10 | –
34 | CC(C)NC(=O)N1CCN(C(=O)Cc2ccc(Cl)c(F)c2)C2C(N3CCC(O)C3)CCCC21.Cl (stereo not drawn) [Example 119] | – | – | % activation functional assay at 1 μM: 102%; EC50 (read-out: GTPγS EC50): 10 to 100 nM
35 | O=C(c1cccs1)N1CCN(C(=O)Cc2ccc(Cl)c(Cl)c2)C2C(N3CCCC3)CCCC21 (racemic) [Example 30] | 110 | – | –
36 | COC(=O)C(=O)N1CCN(C(=O)Cc2ccc(Cl)c(Cl)c2)C2C(N3CCCC3)CCCC21 (racemic) [Example 65] | 104 | < 10 | –
37 | O=C(Cc1ccc(Cl)c(Cl)c1)N1CCN(C(=O)OCc2ccccc2)[C@H]2CCC[C@H](N3CCCC3)[C@H]21 (racemic) [Example 16] | 102 | < 10 | –
38 | COC(=O)N1CCN(C(=O)Cc2ccc(F)c(Cl)c2)[C@@H]2[C@@H](N3CCCC3)CCC[C@@H]21 [Example 92] | 105 | 10 to 100 | –
39 | O=C(C1COC1)N1CCN(C(=O)Cc2ccc(Cl)c(Cl)c2)C2C(N3CCCC3)CCCC21 (racemic) [Example 54] | 104 | 10 to 100 | –
40 | COC(=O)COC(=O)N1CCN(C(=O)Cc2ccc(Cl)c(Cl)c2)[C@@H]2[C@@H](N3CC[C@@H](O)C3)CCC[C@@H]21 [Example 105] | 116 | < 10 | –
41 | COC(=O)N1CCN(C(=O)Cc2ccc(Cl)c(Cl)c2)C2C(N3CCC(O)C3)CCCC21 (stereo not drawn) [Example 53] | – | < 10 | % activation functional assay at 1 μM: 97%; activation (% of control) at 1 μM (1 µM): 97 % of control; EC50 (EC50 (nM) [35S]GTPγS binding): 6.1 nM
42 | COC(=O)N1CCN(C(=O)Cc2ccc(Cl)c(Cl)c2)C2C(N3CC(O)C3)CCCC21 (racemic) [Example 71] | – | – | % activation functional assay at 1 μM: 113%; EC50 (read-out: GTPγS EC50): 10 to 100 nM
43 | NC(=O)c1ccc(C(=O)N2CCN(C(=O)Cc3ccc(Cl)c(Cl)c3)C3C(N4CCCC4)CCCC32)cc1 (racemic) [Example 87] | 109 | – | –
44 | O=C(Cc1ccc(Cl)c(Cl)c1)N1CCN(Cc2ccccc2)[C@@H]2CCC[C@H](N3CCCC3)[C@H]21 (racemic) [H, reference compound] | – | – | activation (% of control) at 1 μM: 97 % of control; EC50 (EC50 (nM) [35S]GTPγS binding): 29 nM
45 | COC(=O)CCC(=O)N1CCN(C(=O)Cc2ccc(Cl)c(Cl)c2)[C@H]2[C@H]1CCC[C@@H]2N1CCCC1 (racemic) [Q, reference compound] | – | – | EC50: 530 nM; activation (% of control) at 1 μM: 61 % of control
46 | COC(=O)N1CCN(C(=O)Cc2cccc(Cl)c2)[C@@H]2[C@@H](N3CC[C@H](O)C3)CCC[C@@H]21 [Example 143] | 102 | 10 to 100 | –
47 | COC(=O)N1CCN(C(=O)Cc2ccc(Cl)c(Cl)c2)C2C(N3CCC(O)C3)CCCC21 (stereo not drawn) [Example 11] | 92 | 10 to 100 | activation (% of control) at 1 μM (1 µM): 92 % of control; EC50 (EC50 (nM) [35S]GTPγS binding): 11.7 nM
48 | COC(=O)N1CCN(C(=O)Cc2ccc(F)c(Cl)c2)[C@@H]2[C@@H](N3CC[C@H](O)C3)CCC[C@@H]21 [Example 109] | 110 | < 10 | –
49 | O=C(c1ccccn1)N1CCN(C(=O)Cc2ccc(Cl)c(Cl)c2)C2C(N3CCCC3)CCCC21 (racemic) [Example 32] | 88 | – | –
50 | O=C(O)CC(=O)N1CCN(C(=O)Cc2ccc(Cl)c(Cl)c2)C2C(N3CCCC3)CCCC21 (racemic) [Example 37] | 87 | 10 to 100 | activation (% of control) at 1 μM: 87 % of control; EC50 (EC50 kappa opioid receptor activation): 22 nM
51 | COC(=O)CNC(=O)N1CCN(C(=O)Cc2ccc(Cl)c(Cl)c2)C2C(N3CCCC3)CCCC21 (racemic) [Example 75] | 113 | < 10 | –
